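Interpolation was linear, between the two tested concentrations surrounding the appropriate level; five concentrations were tested over 48 hours in 96-well plates. Abbreviation: GI50, concentration required for 50% inhibition of growth.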 The source made the active and inactive calls. Rule as the data show it: active = GI50 up to about 1.1 µM and inactive = higher.
Experiments:
Experiment in all cases: NCI tumour cell line growth inhibition, 48 h
[1] = tested on: MDA-MB-231
[2] = tested on: U-251
[3] = tested on: UO-31
[4] = tested on: UACC-257
[5] = tested on: OVCAR-3
[6] = tested on: DU-145
[7] = tested on: T47D
[8] = tested on: SR
[9] = tested on: K562
[10] = tested on: A549
[11] = tested on: KM12
[12] = tested on: LOX IMVI
[13] = tested on: MCF7
[14] = tested on: RXF 393
[15] = tested on: SNB-19
[16] = tested on: EKVX
[17] = tested on: SK-MEL-5
[18] = tested on: SN12C
[19] = tested on: UACC-62

Measured: GI50

CCCc1[nH]nc(C(N)=O)c1/N=N/N(C)C
inactive: [1] > 100 µM | [2] 55.8 µM | [3] 1.16 µM | [4] > 100 µM | [5] > 100 µM | [6] 49.5 µM | [7] 54 µM | [8] 10.5 µM | [9] 2.56 µM | [10] 42.4 µM | [11] 37.1 µM | [12] 47 µM | [13] 20.1 µM | [14] 41.5 µM | [15] > 100 µM | [16] 26.3 µM | [17] 50.1 µM | [18] 48.3 µM | [19] 36.9 µM

O=S(=O)(O)c1ccc2c(/N=N\c3cccc4ccccc34)c(O)c(S(=O)(=O)O)cc2c1
inactive: [1] > 100 µM | [2] > 100 µM | [3] > 100 µM | [4] > 100 µM | [5] > 100 µM | [6] > 100 µM | [7] > 100 µM | [8] > 48.6 µM | [9] > 100 µM | [10] > 100 µM | [11] > 100 µM | [12] > 100 µM | [13] > 100 µM | [14] > 100 µM | [15] > 100 µM | [16] > 100 µM | [17] > 100 µM | [19] > 100 µM

CC(Cl)(CCC(Cl)C(C)(C)Cl)C(=O)CBr (stereo unspecified)
inactive: [1] 11.1 µM | [2] 15.6 µM | [3] 9.31 µM | [4] 12.4 µM | [5] 15.4 µM | [6] 19.5 µM | [7] 17.9 µM | [8] 1.8 µM | [9] 2.88 µM | [10] 19.5 µM | [11] 15.6 µM | [12] 2.06 µM | [13] 13 µM | [14] 2.88 µM | [15] 30.3 µM | [16] 16.4 µM | [17] 8.49 µM | [18] 14.7 µM | [19] 10.1 µM

CC(=O)CCCCC(=O)Nc1ccc(CC(NC(=O)OC(C)(C)C)C(=O)NCC(=O)OCc2ccccc2)cc1 (stereo unspecified)
inactive: [1] 22.5 µM | [2] 18.7 µM | [3] 22.7 µM | [5] 14.8 µM | [6] 32.7 µM | [7] 19.9 µM | [8] 22.2 µM | [9] 17.3 µM | [10] 53.7 µM | [11] 29.4 µM | [12] 15.1 µM | [13] 24.7 µM | [14] 25.2 µM | [15] 21.9 µM | [16] 57.3 µM | [17] 14.7 µM | [18] 24.7 µM | [19] > 10 µM

c1ccc2c(c1)NC1(N3CCCCC3)CCCCC21 (stereo unspecified)
inactive: [1] 34.2 µM | [2] 41.2 µM | [3] 51.9 µM | [4] 47.3 µM | [5] 41.7 µM | [6] 57.9 µM | [7] 20.9 µM | [8] 32 µM | [9] 38.8 µM | [10] 30.5 µM | [11] 32.3 µM | [12] 38.4 µM | [13] 36.1 µM | [14] 9.16 µM | [15] 51.5 µM | [16] 25.5 µM | [17] 56.1 µM | [18] 35.4 µM | [19] 48.9 µM

Cc1cn(C2CCN(CC3COC(C)(C)O3)O2)c(=O)[nH]c1=O (stereo unspecified)
inactive: [1] > 100 µM | [2] > 100 µM | [3] > 100 µM | [4] > 100 µM | [5] > 100 µM | [6] > 100 µM | [7] > 100 µM | [8] > 100 µM | [9] > 100 µM | [10] > 100 µM | [11] > 100 µM | [12] > 100 µM | [13] > 100 µM | [14] > 100 µM | [16] > 100 µM | [17] > 100 µM | [18] > 100 µM | [19] > 100 µM

— ChEMBL document CHEMBL1201862, “PubChem BioAssay data set” (2004)
